# From patent publication US20100173874A1, “Delivery of modulators of glutamate-mediated neurotransmission to the inner ear” (priority 2002, published 2010)
# Entries after “also recorded” stand apart in the source; their conditions may differ.
# How the values were obtained:
# [1] = test system: inner ear; details: acute cochlear perfusion; Wang et al., Neuroscience 2002; cited from earlier work
# [2] = test system: cochlea; test: CAP amplitude after chronic round window perfusion; assay type: in vivo, guinea pig; details: 8 kHz tone burst stimulation, mean of 5 animals
# Experimental: (§1) Experiments were performed on adult guinea pigs weighing from about 250 g to 300 g. The animals were anaesthetized with urethane (1.4 g/kg, i.p.) and artificially respired. Supplemental doses of urethane (0.35 g/kg, i.p.) were administered every 2 hr, or more often if the animal withdrew its paw in response to pressure applied to the paw. The rectal temperature was maintained at about 38.5±1° C., and heart rate (normal range 260-330 beats/min) monitored using EKG electrodes. The external auditory canal was opened near the tympanic annulus, exposing the tympanic membrane and allowing sound to reach the drum without any obstruction. At the end of the experiment, the animals were euthanized by intracardiac injection of an overdose of sodium pentobarbitone.
# [3] = test system: cochlea; test: CAP amplitude after acute intracochlear perfusion; assay type: in vivo, guinea pig; details: 8 kHz tone burst stimulation, mean of 5 animals
# Experimental: as §1
# [4] = test system: auditory nerve fibers; test: Single unit recording of auditory nerve fibers during intracochlear perfusion (salicylate-induced excitation); assay type: in vivo, guinea pig
# Experimental: as §1
# Salicylate Tinnitus Model. Salicylate, the active component of aspirin, is of special concern in auditory science because it induces tinnitus in humans. The efficacy of agents to treat tinnitus was tested by measuring firing rate of the auditory nerve fibers in presence of salicylate.
# Briefly, the test solutions were applied into the cochlea using a multi-barrel perfusion pipette (ASI Instruments) placed into a hole made in the basal turn scala tympani and allowed to flow out of the cochlea through a hole (0.2 mm diameter) made at the apex. The cochlear nerve was exposed using a posterior fossa approach. Extracellular action potentials from single auditory nerve fibers were recorded with glass microelectrodes. Once a single unit was isolated, spontaneous activity was averaged over 10 seconds. The unit's tuning curves were then determined by a computer-controlled, threshold-tracking program using a 200 ms tone burst presented at 3/s. The threshold criterion was a difference of 10 spikes/s, i.e., 2 spikes difference between the tone (200 ms) and non-tone (200 ms) counting intervals. The program determined the characteristic frequency (CF) and the frequency tuning of the fiber by measuring the Q10dB defined as the CF divided by the bandwidth at 10 dB above the CF threshold.
# An experiment was carried out to determine the ability of perfused Glutamate antagonists to suppress salicylate-induced excitation.
# [5] = test system: guinea pigs; details: intracochlear perfusion; cited from earlier work
# [6] = test system: radial dendrites; details: intracochlear perfusion ten minutes prior to or concomitant with AMPA perfusion; cited from earlier work
# [7] = test system: rats; test: Behavioral model of salicylate-induced tinnitus (active avoidance task)
# Experimental: To verify that the excitatory action of sodium-salicylate on the auditory nerve fibers results in perception of tinnitus, a behavioral model was designed in rats based upon an active avoidance task. Animals were trained to respond to a conditioned stimulus consisting of a 10 kHz tone burst of 3 s duration.
# (§2) CAP threshold shifts were calculated as the difference in dB between the auditory threshold at day 0 and the auditory threshold at each day. To avoid changes due to hearing loss, the intensity of sound eliciting behavioral responses was adjusted as a function of CAP threshold shift.
# Gelfoam placed on the round window was used to apply drugs into the fluid of the cochlea.
# To support the hypothesis that salicylate induced false positive via cochlear NMDA receptors, we applied other NMDA antagonists into the perilymphatic fluids using gelfoam placed on the round window of both ears.
# [8] = test system: rats; details: 300 mg/kg/day i.p. during 4 days; frequency range 2 to 26 KHz
# Experimental: CAP thresholds were measured using an electrode chronically implanted on round window in response to a tone burst of 1 ms rise/fall time and 9 ms duration presented at a rate of 10 times per second.
# as §2
# [9] = intracochlear perfusion, 50 μM, 5 mM NaSal
# [10] = 300 mg/kg/day i.p., daily during 4 days
compound,measurement,setting,value
Nc1nc2ccc(OC(F)(F)F)cc2s1 [Riluzole],hearing after noise induced hearing loss,[1],rescues hearing after noise induced hearing loss
same,mean amplitude of the CAP,[2],reduced the CAP amplitude in the dose dependent manner
same,mean amplitude of the CAP,[3],reduce the CAP amplitude in a dose-dependent manner
CNC(=O)N1N=C(c2ccc(N)cc2)c2cc3c(cc2C[C@H]1C)OCO3 [GYKI 53784],auditory nerve fiber activity evoked by sound,"[4]; intracochlear perfusion, 50 μM",blocked both spontaneous activity and those evoked induced by sodium-salicylate or sound
same,spontaneous activity of the auditory nerve fiber,"[4]; intracochlear perfusion, 50 μM",blocked both the spontaneous and the evoked activity
same,neural excitation of auditory nerve induced by sodium-salicylate,[4]; [9],blocked both the spontaneous and the evoked activity
O=C(O)c1cc(=O)c2ccccc2[nH]1 [kynurenate],protection against sound-induced synaptic damage,[5],protects against sound-induced synaptic damage
"O=c1[nH]c2cc([N+](=O)[O-])c([N+](=O)[O-])cc2[nH]c1=O [DNQX, 6-7-dinitorquinoxaline-2,3-dione]",radial dendrite swelling,[6],prevented most of the occurrence of radial dendrite swelling
O=C([O-])c1ccccc1O.[Na+] [sodium-salicylate],number of false positives (responses without sound),[7]; [10],drastic increase of the number of false positives
same,"score (positive responses to sound, % of total)",[7]; [10],reversible reduction of the score
same,score (positive responses to sound),"[7]; salicylate days 2 to 5, sound intensity adjusted as a function of CAP threshold shift",no significant decrease in the score was observed
same,false positive responses,"[7]; salicylate treatment, sound intensity adjusted as a function of CAP threshold shift",false positive responses still remained
same,spontaneous firing of the auditory nerve fibers,"[4]; intracochlear application, 5 mM",reversibly increased spontaneous firing of the auditory nerve fibers
same,hearing loss (CAP threshold),[8],30 dB
"CC1CCCCC1(c1cccs1)N1CCCCC1 (stereo not shown) [gacyclidine, Gacyclidine]",score under salicylate treatment,"[7]; 50 μM, gelfoam on the round window",reduction of the score still been unchanged
same,spontaneous activity of the auditory nerve fiber,"[4]; intracochlear perfusion, 50 μM",had no effect on spontaneous activity; also recorded: not the spontaneous activity of the fiber
same,neural excitation of auditory nerve induced by sodium-salicylate,[4]; [9],suppressed neural excitation induced by sodium-salicylate; also recorded: suppressed neural excitation of auditory nerve induced by Na Salicylate
COc1ccc2c(c1)c(CC(=O)O)c(C)n2C(=O)c1ccc(Cl)cc1 [indomethacin],spontaneous activity of the auditory nerve fiber,"[4]; intracochlear perfusion, 100 μM in artificial perilymph, fiber coding for 8 kHz",did not change the spontaneous activity of the auditory nerve fiber
Dizocilpine [MK 801],score under salicylate treatment,"[7]; 10 μM, gelfoam on the round window",reduction of the score still been unchanged
same,number of false positive responses induced by salicylate,"[7]; 10 μM, gelfoam on the round window, day 4 of salicylate treatment, n=10",drastically reduced the occurrence of the false positive responses
same,neural excitation of auditory nerve induced by sodium-salicylate,"[4]; intracochlear perfusion, 10 μM",suppressed neural excitation induced by sodium-salicylate
same,spontaneous activity of the auditory nerve fiber,"[4]; intracochlear perfusion, 10 μM",had no effect on spontaneous activity
